# According to patent US20080227644A1, “Use of abscisic acid to control fruiting” (priority 2007, published 2008):
# Columns and labels:
# Format in all cases: in vivo
# Cacaks plum = assay: Spray of plum trees at petal fall (BBCH stage 69), fruit set, yield, fruit weight; details: at harvest
# Experimental: (§1) Trees of Cacaks plum were sprayed at petal fall (BBCH stage 69) with 500 ppm or 1000 ppm ABA or left untreated (Table 3). Percent fruit set, average yield and average fruit weight were determined at harvest. Spraying Cacaks plum trees with ABA reduced fruit set percentage and yield per tree and increased average fruit weight (Table 3).
# Cacaks Schone plum = assay: Spray of plum trees at fruitlet set stage, fruit set and fruit size; details: 600 ppm at fruitlet set stage
# Experimental: (§2) Trees of Cacaks Schone plum and Katinka plum were sprayed with 600 ppm ABA at the fruitlet set stage or left untreated. The number of fruit per flower was determined after the normal fruit drop period had ended. At harvest the weight per 100 fruits was measured for both the ABA treated and the untreated trees. Spraying Cacaks Schone or Katinka plum trees with ABA at the fruitlet set stage reduced the number of fruits per flower and increased the average fruit weight compared to untreated trees (Table 2).
# Katinka plum [1] = assay: as above; details: 600 ppm at fruitlet set stage
# Experimental: as §2
# PF-27 peach trees = assay: Foliar spray of peach tree limbs at shuck split stage, fruit retention; details: 1000 ppm, sprayed to runoff
# Excerpt: Limbs of PF-27 peach trees with fruit at the shuck split stage were flagged; the number of fruit distal to the flagging was counted. The limbs were sprayed to runoff with either water or 1000 ppm abscisic acid (S-ABA; ABA; S-(+)-abscisic acid; +-ABA, (+)-(S)-cis,trans-abscisic acid,(+)-(S)-cis,trans-ABA; S-ABA; (S)-5-(1-hydroxy-2,6,6,-trimethyl-4-oxo-2-cyclohexen-1-yl)-3-methyl-(2Z,4E)-pentadienoic acid; CAS no. 21293-29-8). After 8 and 19 days the fruit were re-counted and the percent fruit retention was determined. Limbs treated with 1000 ppm ABA retained less fruit than limbs treated with water 19 days following treatment (Table 1).
# Katinka plum [2] = assay: Spray of plum trees at petal fall (BBCH stage 69), fruit set, yield, fruit weight; details: at harvest
# Experimental: as §1, with “Katinka” for “Cacaks”, “4).” for “3).”
# Lady Elana Apricot = assay: Spray of trees at petal fall (BBCH stage 69), fruit set; details: 1000 ppm at petal fall; at harvest
# Experimental: (§3) Trees of Lady Elana Apricot and Elegant Lady Peach were sprayed at petal fall (BBCH stage 69) with 1000 ppm ABA or left untreated (Table 5). Percent fruit set was determined at harvest. Spraying Lady Elana Apricot and Elegant Lady Peach trees with ABA reduced percent fruit set (Table 5).
# Elegant Lady Peach = assay: as above; details: 1000 ppm at petal fall; at harvest
# Experimental: as §3
# [3] = tested on: European seedless cucumber (var. Flamingo) plants; assay: Foliar spray of greenhouse cucumber plants, fruit abortion; details: 100 ppm, sprayed to drip at 20 node growth stage
# Experimental: European seedless cucumber (var. Flamingo) plants were grown in a greenhouse. At the 20 node growth stage the plants were sprayed to drip with ABA (100 ppm) solution or left unsprayed (control). ABA treated plants had twice the rate of fruit abortion compared to the control plants (Table 6).
substance,measurement,setting,value
"(S)-5-(1-hydroxy-2,6,6,-trimethyl-4-oxo-2-cyclohexen-1-yl)-3-methyl-(2Z,4E)-pentadienoic acid [ABA]",% Fruit set,Cacaks plum; 500 ppm at petal fall,20%
same,Fruit weight,Cacaks plum; 500 ppm at petal fall,14.5 g
same,Yield,Cacaks plum; 500 ppm at petal fall,8.0 kg/tree
same,% Fruit set,Cacaks plum; 1000 ppm at petal fall,11%
same,Fruit weight,Cacaks plum; 1000 ppm at petal fall,14.6 g
same,Yield,Cacaks plum; 1000 ppm at petal fall,7.0 kg/tree
same,Fruit/flower,Cacaks Schone plum; after normal fruit drop period,0.09
same,100 fruit weight,Cacaks Schone plum; at harvest,2.23 kg
same,Fruit/flower,Katinka plum [1]; after normal fruit drop period,0.45
same,100 fruit weight,Katinka plum [1]; at harvest,2.35 kg
same,percent fruit retention,PF-27 peach trees; 8 days after treatment,97%
same,percent fruit retention,PF-27 peach trees; 19 days after treatment,69%
same,% Fruit set,Katinka plum [2]; 500 ppm at petal fall,28%
same,Fruit weight,Katinka plum [2]; 500 ppm at petal fall,26.2 g
same,Yield,Katinka plum [2]; 500 ppm at petal fall,4.2 kg/tree
same,% Fruit set,Katinka plum [2]; 1000 ppm at petal fall,21%
same,Fruit weight,Katinka plum [2]; 1000 ppm at petal fall,28.0 g
same,Yield,Katinka plum [2]; 1000 ppm at petal fall,4.4 kg/tree
same,% Fruit set,Lady Elana Apricot,33%
same,% Fruit set,Elegant Lady Peach,36%
same,Percentage of basal 18 cucumber fruits per plant that aborted,[3],68%
same,rate of fruit abortion compared to the control plants,[3],twice
